Read-outs that look alike come from different tables or passages of the source.
Key:
[1] = molecular target: T1, FPRL1 (Homo sapiens, UniProt P25090); assay: compound-induced calcium activity on FLIPR Tetra in CHO-Gal6 cells stably expressing FPRL1; format: cell-based; settings: for FPRL1 (rel. eff.): relative efficacy
T1 construct: expressed in transfected cells; host or cells: CHO-Gal6 (CHO cells with G alpha 16)
T1 sequence (P25090 1-351): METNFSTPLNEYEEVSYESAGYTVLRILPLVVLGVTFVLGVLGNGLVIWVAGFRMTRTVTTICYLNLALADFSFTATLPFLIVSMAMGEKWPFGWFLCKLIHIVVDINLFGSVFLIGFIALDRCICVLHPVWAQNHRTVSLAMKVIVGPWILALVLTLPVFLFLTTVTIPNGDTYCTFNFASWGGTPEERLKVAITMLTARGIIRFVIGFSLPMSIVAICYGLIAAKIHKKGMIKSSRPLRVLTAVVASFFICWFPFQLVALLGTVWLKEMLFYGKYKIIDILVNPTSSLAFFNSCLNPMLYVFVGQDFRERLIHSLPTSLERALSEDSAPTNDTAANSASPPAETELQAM
Method: (§1) CHO-Gal6 cells stably expressing FPRL1 were cultured in (F12, 10% FBS, 1% PSA, 400 μg/ml geneticin and 50 μg/ml hygromycin) and HEK-Gqi5 cells stable expressing FPR1 were cultured in (DMEM high glucose, 10% FBS, 1% PSA, 400 μg/ml geneticin and 50 μg/ml hygromycin). In general, the day before the experiment, 18,000 cells/well were plated in a 384-well clear bottom poly-d-lysine coated plate. The following day the screening compound-induced calcium activity was assayed on the FLIPR^Tetra. The drug plates were prepared in 384-well microplates using the EP3 and the MultiPROBE robotic liquid handling systems. Compounds were tested at concentrations ranging from 0.61 to 10,000 nM. Results are expressed as EC50 (nM) and efficacy values.

[2] = molecular target: T2, FPR1 (Homo sapiens, UniProt P21462); assay: compound-induced calcium activity on FLIPR Tetra in HEK-Gqi5 cells stable expressing FPR1; format: cell-based; design: FPR1 (rel. eff.): scale not given here; settings: for FPR1 (rel. eff.): relative efficacy
T2 construct: expressed in transfected cells; host or cells: HEK-Gqi5 (HEK cells with chimeric G protein Gqi5)
T2 sequence (P21462 1-350): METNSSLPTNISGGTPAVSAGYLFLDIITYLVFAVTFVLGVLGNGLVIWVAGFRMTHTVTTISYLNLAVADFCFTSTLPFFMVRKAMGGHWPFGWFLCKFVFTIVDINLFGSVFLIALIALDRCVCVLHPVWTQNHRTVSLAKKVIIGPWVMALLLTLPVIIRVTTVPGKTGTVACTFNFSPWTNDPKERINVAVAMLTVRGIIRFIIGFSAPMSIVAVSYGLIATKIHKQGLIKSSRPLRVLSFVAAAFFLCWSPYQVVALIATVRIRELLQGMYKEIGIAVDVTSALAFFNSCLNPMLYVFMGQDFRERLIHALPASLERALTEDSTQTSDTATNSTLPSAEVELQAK
Method: as §1

[3] = calcium, FLIPR Tetra, tested 0.61 to 10,000 nM, read-out: FPRL1 EC50
[4] = class symbol NA, read-out: FPR1 EC50 (NA = Not Active)
[5] = calcium, FLIPR Tetra, tested 0.61 to 10,000 nM, read-out: FPR1 EC50

SMILES	EC50 [1, 3]	FPRL1 (rel. eff.) ([1]; calcium, FLIPR Tetra)	EC50 [2, 4]	FPR1 (rel. eff.) ([2]; calcium, FLIPR Tetra)	EC50 [2, 5]	EC50 ([1]; class symbol NA, read-out: FPRL1 EC50 (NA = Not Active))	EC50 ([2]; cells printed in μM, read-out: FPR1 EC50)
CCOC(=O)C1C(C(=O)Nc2ccc(I)cc2)C2C=CC1C21CC1 (racemic) [Compound 17, Ethyl(+/−)-(1S,4R,5S,6R)-6-(4-Iodophenylcarbamoyl)spiro[bicyclo[2.2.1]hept[2]ene-7,1′-cyclopropane]-5-carboxylate]	243 nM	0.76	> 10 µM	–	–	–	–
CC(C)=C1[C@H]2C=C[C@@H]1[C@@H](C(=O)O)[C@H]2C(=O)Nc1ccc(Br)cc1 (racemic) [Compound 21, (+/−)-(1S,4R,5R,6S)-6-(4-Bromophenylcarbamoyl)[bicyclo[2.2.1]hept[2]ene-7-propan-2-ylidene]-5-carboxylic Acid]	461 nM	0.77	–	50	–	–	–
O=C(O)C1C(C(=O)Nc2ccc(-c3ccccc3)cc2)C2C=CC1C21CC1 (racemic) [Compound 26, (+/−)-(1R,4S,5R,6S)-5-([1,1′-Biphenyl]-4-ylcarbamoyl)spiro[bicyclo[2.2.1]hept[2]ene-7,1′-cyclopropane]-6-carboxylic Acid]	2360 nM	0.69	> 10 µM	–	–	–	–
O=C(O)C1C(C(=O)Nc2cccc(C(F)(F)F)c2)C2C=CC1C21CC1 (racemic) [Compound 27, (+/−)-(1S,4R,5S,6R)-6-β3-(Trifluoromethyl)phenyl)carbamoyl)spiro[bicyclo-[2.2.1]hept[2]ene-7,1′-cyclopropane]-5-carboxylic Acid]	2770 nM	0.72	> 10 µM	–	–	–	–
O=C(O)C1C(C(=O)Nc2ccc(Cl)c(Cl)c2)C2C=CC1C21CC1 (racemic) [Compound 28, (+/−)-(1S,4R,5S,6R)-6-((3,4-Dichlorophenyl)carbamoyl)spiro[bicyclo[2.2.1]hept[2]-ene-7,1′-cyclopropane]-5-carboxylic Acid]	616 nM	0.70	> 10 µM	–	–	–	–
O=C(O)[C@@H]1[C@H](C(=O)Nc2ccc3c(c2)oc2ccccc23)[C@@H]2CC[C@H]1C21CC1 (racemic) [Compound 31, (+/−)-(1S,4R,5S,6R)-6-(dibenzo[b,d]furan-3-ylcarbamoyl)spiro[bicyclo[2.2.1]-heptane-7,1′-cyclopropane]-5-carboxylic acid]	2260 nM	0.9	> 10 µM	–	–	–	–
CC(=O)c1ccc(NC(=O)C2C(C(=O)O)C3C=CC2C32CC2)cc1 (racemic) [Compound 32, (+/−)-(1R,4S,5R,6S)-5-((4-Acetylphenyl)carbamoyl)spiro[bicyclo[2.2.1]hept[2]ene-7,1′-cyclopropane]-6-carboxylic Acid]	277 nM	0.96	> 10 µM	–	–	–	–
O=C(O)C1C(C(=O)Nc2ccc(O)cc2)C2C=CC1C21CC1 (racemic) [Compound 33, (+/−)-(1S,4R,5S,6R)-6-((4-Hydroxyphenyl)carbamoyl)spiro[bicyclo[2.2.1]hept[2]ene-7,1′-cyclopropane]-5-carboxylic Acid]	–	–	> 10 µM	–	–	> 10000 nM	–
O=C(O)C1C(C(=O)Nc2ccc(OC(F)(F)F)cc2)C2C=CC1C21CC1 (racemic) [Compound 34, (+/−)-(1S,4R,5S,6R)-6-β4-(Trifluoromethoxy)phenyl)carbamoyl)spiro[bicyclo-[2.2.1]hept[2]ene-7,1′-cyclopropane]-5-carboxylic Acid]	585 nM	0.96	> 10 µM	–	–	–	–
C[S+]([O-])c1ccc(NC(=O)C2C(C(=O)O)C3CCC2C32CC2)cc1 (racemic) [Compound 44, (+/−)-(1R,2S,3R,4S)-3-((4-(Methylsulfinyl)phenyl)carbamoyl)spiro[bicyclo-[2.2.1]heptane-7,1′-cyclopropane]-2-carboxylic Acid]	475 nM	0.95	> 10 µM	–	–	–	–
NC(=O)C1C(C(=O)Nc2ccc(Br)cc2)C2CCC1C21CC1 (racemic) [Compound 46A]	6520 nM	0.85	> 10 µM	–	–	–	–

The remaining lines, values ahead:

EC50 [1, 3]	FPRL1 (rel. eff.) ([1]; calcium, FLIPR Tetra)	EC50 [2, 4]	FPR1 (rel. eff.) ([2]; calcium, FLIPR Tetra)	EC50 [2, 5]	EC50 ([1]; class symbol NA, read-out: FPRL1 EC50 (NA = Not Active))	EC50 ([2]; cells printed in μM, read-out: FPR1 EC50)	SMILES
36 nM	0.86	> 10 µM	–	–	–	–	CC1(C)[C@@H]2CC[C@H]1[C@@H](C(=O)Nc1ccc(Cl)cc1)[C@H]2C(=O)O (racemic) [Compound 14, (+/−)-(1R,2S,3R,4S)-3-(4-Chlorophenylcarbamoyl)-7,7-dimethylbicyclo[2.2.1]heptane-2-carboxylic Acid]
187 nM	0.72	> 10 µM	–	–	–	–	CC(C)OC(=O)C1C(C(=O)Nc2ccc(I)cc2)C2C=CC1C21CC1 (racemic) [Compound 18, Iso-propyl(+/−)-(1S,4R,5S,6R)-6-(4-Iodophenylcarbamoyl)spiro[bicyclo[2.2.1]hept[2]ene-7,1′-cyclopropane]-5-carboxylate]
30 nM	0.96	> 10 µM	–	–	–	–	CC(C)=C1[C@H]2C=C[C@@H]1[C@H](C(=O)O)[C@@H]2C(=O)Nc1ccc(Br)cc1 (racemic) [Compound 20, (+/−)-(1S,4R,5S,6R)-6-(4-Bromophenylcarbamoyl) [bicyclo[2.2.1]hept[2]ene-7-propan-2-ylidene]-5-carboxylic Acid]
164 nM	0.89	–	–	8.3 µM	–	–	CC(C)=C1C2CCC1C(C(=O)Nc1ccc(Br)cc1)C2C(=O)O (racemic) [Compound 24, (+/−)-(1S,2R,3S,4S)-3-(4-Bromophenylcarbamoyl)[bicyclo[2.2.1]heptane-7-propan-2-ylidene]-2-carboxylic Acid]
149 nM	0.74	> 10 µM	–	–	–	–	O=C(O)C1C(C(=O)Nc2ccc(Br)cn2)C2C=CC1C21CC1 (racemic) [Compound 25, (+/−)-(1S,4R,5S,6R)-6-(5-Bromo-2-pyridylcarbamoyl)spiro[bicyclo[2.2.1]hept[2]ene-7,1′-cyclopropane]-5-carboxylic Acid]
14 nM	0.85	> 10 µM	–	–	–	–	CSc1ccc(NC(=O)C2C(C(=O)O)C3C=CC2C32CC2)cc1 (racemic) [Compound 35, (+/−)-(1S,4R,5S,6R)-6-((4-(Methylthio)phenyl)carbamoyl)spiro[bicyclo-[2.2.1]hept[2]ene-7,1′-cyclopropane]-5-carboxylic Acid]
59 nM	0.91	> 10 µM	–	–	–	–	CCc1ccc(NC(=O)C2C(C(=O)O)C3C=CC2C32CC2)cc1 (racemic) [Compound 36, (+/−)-(1S,4R,5S,6R)-6-((4-Ethylphenyl)carbamoyl)spiro[bicyclo[2.2.1]hept[2]ene-7,1′-cyclopropane]-5-carboxylic Acid]
16 nM	0.79	> 10 µM	–	–	–	–	CCc1ccc(NC(=O)[C@H]2[C@@H](C(=O)O)[C@H]3CC[C@@H]2C32CC2)cc1 (racemic) [Compound 40, (+/−)-(1R,2S,3R,4S)-3-((4-Ethylphenyl)carbamoyl)spiro[bicyclo[2.2.1]heptane-7,1′-cyclopropane]-2-carboxylic Acid]
123 nM	0.80	> 10 µM	–	–	–	–	O=C(O)[C@@H]1[C@H](C(=O)Nc2ccc(OC(F)(F)F)cc2)[C@@H]2CC[C@H]1C21CC1 (racemic) [Compound 41, (+/−)-(1R,2S,3R,4S)-3-((4-(Trifluoromethoxy)phenyl)carbamoyl)spiro-[bicyclo[2.2.1]heptane-7,1′-cyclopropane]-2-carboxylic Acid]
7 nM	0.96	–	0.23	1.1 µM	–	–	CSc1ccc(NC(=O)[C@H]2[C@@H](C(=O)O)[C@H]3CC[C@@H]2C32CC2)cc1 (racemic) [Compound 42, (+/−)-(1R,2S,3R,4S)-3-((4-(Methylthio)phenyl)carbamoyl)spiro[bicyclo-[2.2.1]heptane-7,1′-cyclopropane]-2-carboxylic Acid]
49 nM	0.71	–	0.50	–	–	> 10 µM	CC(=O)c1ccc(NC(=O)[C@H]2[C@@H](C(=O)O)[C@H]3CC[C@@H]2C32CC2)cc1 (racemic) [Compound 43, (+/−)-(1S,2R,3S,4R)-2-((4-Acetylphenyl)carbamoyl)spiro[bicyclo[2.2.1]heptane-7,1′-cyclopropane]-3-carboxylic Acid]
